From patent US20250099485A1, “COMPOSITIONS FOR PROMOTING HAIR GROWTH” (ESTETRA SRL, priority 2021, published 2025)

Assays:
[1] = test system: Normal Human Dermal Fibroblasts (NHDFs); assay: Colonization of acellular area (IBIDI gap closure), fibroblasts; format: cell-based; conditions: for NHDF Migration (+MMC) (colonization of acellular area vs ethanol control): presence of mitomycin C, 6 h and 24 h contact, cell gives time of significant effect
Procedure: The study consists in an in vitro assay aiming to evaluate the properties of E4 and E2 at 4 concentrations each on keratinocytes and fibroblasts. In this assay, the measurement of the colonization of a standard acellular surface generated from a confluent monolayer of cells using a dedicated culture device (IBIDI chamber) is performed. The assay is performed in absence and in presence of a proliferation inhibitor to focus on cell proliferation and migration or on migration only, respectively.
Normal Human foreskin-derived Dermal Fibroblast (NHDFs, ATCC) cells were grown in phenol-free Dulbecco's Modified Eagle Medium (DMEM, ThermoFisher Scientific) supplemented with 10% of Foetal Bovine Serum (FBS, ThermoFisher Scientific), L-glutamine and antibiotics. The cells were maintained in a humidified incubator at 37° C. with a 5% CO2 atmosphere.
Cells were plated in 2-well silicone inserts with a defined cell free gap (IBIDI chambers; IBIDI GmbH, 80209) that was previously inserted on 12-well culture plates. This culture device allows to create a standardized 500 μm±100 μm cell free gap for monitoring cell colonization. 24 h after seeding, when the culture reached high confluency, cells in the insert were treated, or not, with mitomycin C (MMC) at 10 μg/ml during 2 h. After these 2 hours, the insert was removed, and cells were treated with E2 or E4 in presence or not of MMC for additional 2 h. Then, if appropriate, the culture medium was removed and cells were treated with E2 or E4 for 22 h, in absence of MMC.
For the assay, keratinocytes were plated in Epilife medium without HKGS and all the treatments were performed in this medium. Fibroblasts were plated in DMEM medium containing only 2.5% of FBS and the treatments were performed in absence of FBS.
E2 and E4 were applied at 4 concentrations each (10^−7M, 10^−8M, 10^−9M, 10^−10M). In parallel, cells were treated with a positive control (HKGS 1% for human keratinocytes and PDGF-BB at 10 ng/ml for human fibroblasts).
To monitor cell colonization and to evaluate the gap closure rate, pictures of the gap were taken after different times: at time 0 h, corresponding to the beginning of the treatment with E2 or E4 and to the removal of the culture insert, at time 6 h and at time 24 h (corresponding to the end of the treatments with E2 or E4). Pictures were taken with a microscope Zeiss (Axiover 25-10× objective) and with a camera Invenio2EIII (DeltaPix—Lux-Optic). The colonized areas were quantified from the pictures by the use of the WimAsis platform—WimScratch software. For each insert, 3 pictures were taken at each time. As each condition was performed in triplicates, it means a total of 9 pictures per condition and per time point of acquisition

[2] = test system: fibroblasts isolated from female C57Bl1/6 mice; assay: Fibroblast monolayer scratch assay, mouse; format: cell-based; conditions: 10^−7 M, compared with E2
Procedure: Confluent wells of both primary keratinocytes and fibroblasts were subjected to a highly validated scratch wounding procedure (using a 1 mL sterile filter tip). Post-scratching, cells were rinsed with DPBS and cell-specific media containing treatments added to each well. Cells were imaged on a ptychographic live cell imaging platform (Livecyte 2TM, Phasefocus) for 24-48 hours. Automated tracking of individual unlabeled cells will be combined with 3D cell measurements to quantify a range of wound-relevant cell parameters including scratch closure rate.
Dose range finding experiments were conducted with E4 (10^−10M to 10^−6M) and E2 with and without Mitomycin C (MMC, to inhibit proliferation) using vehicle as negative controls.
The assay was performed in the phenol red-free cell culture media containing charcoal stripped fetal bovine serum, using fibroblasts isolated from female C57Bl1/6 mice and from surplus abdominal skin donated by three female donors.

[3] = test system: human hair follicles (HF); assay: Hair follicle organ culture: hair shaft elongation ex vivo; format: cell-based; conditions: 300 nM, 3 μM, 30 μM, n=4 female donors
Procedure: 12-44 full-length frontotemporal hair follicles (HF) were obtained from four human female donors >50 years old. Donors were caucasian female subjects […], respectively (Donor 1: 12 temporal anagen HFs; Donor 2: 29; Donor 3: 44; Donor 4: 32). After microdissection from skin as described (Edelkamp et al., Methods Mol Biol, 2020, 2154:105-119; and Langan et al., Exp Dermatol, 2015, December; 24(12):903-1), HFs were placed in adequate culture medium and allowed a 24 h rest period to allow them to recover from the trauma of microdissection. Test substance (either vehicle (0.3% EtOH) or E4 at concentrations of 30 μM, 3 μM or 300 nM) was added to the medium at the end of the 24 h. Total culturing time was 5-7 days depending on the studied parameters and the experimental question. The experimental design for the hair follicle organ culture experiment is depicted in FIG. 12. […]
To determine the HF length, each HF was measured from the end of the bulb connective tissue sheath to the end of the distal outer root sheath (ORS), using a digital light microscope at 50× magnification (VHX 900 Keyence Corporation, Osaka, Japan) and the affiliated software (Edelkamp et al., Methods Mol Biol, 2020, 2154:105-119; and Langan et al., Exp Dermatol, 2015, December; 24(12):903-1). […] Elongation is expressed as millimeters of growth and/or as percentage elongation from the baseline measurement.

K15 positive cells = assay: Hair follicle organ culture: K15 expression, stem cells; format: cell-based, human; conditions: vs vehicle
Procedure: 12-44 full-length frontotemporal hair follicles (HF) were obtained from four human female donors >50 years old. Donors were caucasian female subjects […], respectively (Donor 1: 12 temporal anagen HFs; Donor 2: 29; Donor 3: 44; Donor 4: 32). After microdissection from skin as described (Edelkamp et al., Methods Mol Biol, 2020, 2154:105-119; and Langan et al., Exp Dermatol, 2015, December; 24(12):903-1), HFs were placed in adequate culture medium and allowed a 24 h rest period to allow them to recover from the trauma of microdissection. Test substance (either vehicle (0.3% EtOH) or E4 at concentrations of 30 μM, 3 μM or 300 nM) was added to the medium at the end of the 24 h. Total culturing time was 5-7 days depending on the studied parameters and the experimental question. The experimental design for the hair follicle organ culture experiment is depicted in FIG. 12. Longer term culture experiments may be used to analyze the capacity to delay the onset of catagen.
K15 is a type I cytokeratin expressed in HF bulge stem cells and their progeny (Purba et al., BioEssays, 2014). It is expressed in the bulge, infra-bulge and suprabulbar ORS. Bulge stem cells are identified using K15 expression, cellular morphology and anatomical localization (below the sebaceous glands, at the area where the arrector pili muscle attaches to the HF). K15 expression was analyzed in the bulge basal layer and in the suprabulbar ORS, and proliferation of K15 positive cells was evaluated in combination with Ki67 immunofluorescence staining.

## C[C@]12CC[C@@H]3c4ccc(O)cc4CC[C@H]3[C@@H]1[C@@H](O)[C@@H](O)[C@@H]2O [E4, 1,3,5 (10)-estratrien-3,15alpha,16alpha,17beta-tetrol]
[1]; 10^−7M
  NHDF Migration (+MMC) (colonization of acellular area vs ethanol control): significantly increase the colonization of the acellular area
[1]; 10^−8M
  NHDF Migration (+MMC) (colonization of acellular area vs ethanol control): significantly increase the colonization of the acellular area
[1]; absence of MMC, all four concentrations
  NHDF colonization of the cell-free area: not able to significantly increase
[2]
  in vitro wound closure, mouse fibroblasts scratch assay: promotes in vitro wound closure to a similar extent as E2
[3]
  hair shaft production: did not modify
K15 positive cells; 300 nM, 3 μM, 30 μM
  percentage of K15 positive cells in the suprabulbar ORS: did not have any effect
K15 positive cells; 300 nM
  decreased proliferation of K15 positive cells in the suprabulbar ORS (Ki-67): significantly
  increased proliferation of K15 positive cells in the bulge basal layer (Ki-67): tendentially
K15 positive cells; 3 μM
  decreased proliferation of K15 positive cells in the suprabulbar ORS (Ki-67): tendentially
  increased proliferation of K15 positive cells in the bulge basal layer (Ki-67): tendentially
  percentage of K15 positive cells in the bulge basal layer: significantly decreased
K15 positive cells; 30 μM
  increased proliferation of K15 positive cells in the bulge basal layer (Ki-67): significantly
